Biological target: T1, PfPLP2 (rPMD2, pan-MACPF domain of perforin-like protein 2) (Plasmodium falciparum, UniProt Q8I5P0)
T1 construct: gene PF3D7_1216700; rPMD2, recombinant His-tagged MACPF domain of PfPLP2
Assay: inhibition of erythrocyte lysis by purified rPMD2; thermal protection of purified rPMD2 (modified CETSA)
Format: biochemical

T1 sequence (Q8I5P0 entry or part of it): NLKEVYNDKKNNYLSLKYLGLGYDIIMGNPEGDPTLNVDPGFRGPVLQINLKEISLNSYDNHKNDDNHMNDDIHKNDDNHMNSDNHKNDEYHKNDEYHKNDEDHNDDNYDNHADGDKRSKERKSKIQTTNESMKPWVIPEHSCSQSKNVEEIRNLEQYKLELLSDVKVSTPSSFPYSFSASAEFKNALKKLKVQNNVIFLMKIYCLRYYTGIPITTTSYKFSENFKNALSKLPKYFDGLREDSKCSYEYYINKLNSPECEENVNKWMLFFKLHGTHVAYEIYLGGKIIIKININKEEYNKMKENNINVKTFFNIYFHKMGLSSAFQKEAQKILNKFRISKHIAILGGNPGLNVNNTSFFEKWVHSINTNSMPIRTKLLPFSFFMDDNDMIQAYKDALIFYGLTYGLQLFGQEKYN

| Compound | inhibition of erythrocyte lysis by purified rPMD2; thermal protection of purifie |
| --- | --- |
| Cn1cc(/C=C2\NC(=S)NC2=O)c2ccccc21 [C01, (Z)-5-((1-methyl-1H-indol-3-yl)methylene)-2-thioxoimidazolidin-4-one] | C01 and C02 could inhibit the activity of both rPMD1 and rPMD2 in the sub-micromolar range |
| O=C1NC(=S)N/C1=C\c1csc2ccccc12 [C02, (Z)-5-(benzo[b]thiophen-3-ylmethylene)-2-thioxoimidazolidin-4-one] | C01 and C02 could inhibit the activity of both rPMD1 and rPMD2 in the sub-micromolar range |

Source: paper PMC7105882, “Plasmodium Perforin-Like Protein Pores on the Host Cell Membrane Contribute in Its Multistage Growth and Erythrocyte Senescence” (Frontiers in Cellular and Infection Microbiology, 2020)
